Data from ChEMBL document CHEMBL5108045, “Identification and Utilization of a Chemical Probe to Interrogate the Roles of PIKfyve in the Lifecycle of β-Coronaviruses” (J Med Chem, 2022).
Activity calls are given as the source filed them. No cut-off for these calls is given here.

Assays:
[1] = target: T1, 1-phosphatidylinositol 3-phosphate 5-kinase (Homo sapiens, UniProt Q9Y2I7); assay: Inhibition of PIKFYVE in HEK293 cells by NanoBRET assay; format: cell-based
[2] = target: T1, 1-phosphatidylinositol 3-phosphate 5-kinase; assay: Inhibition of human GST tagged PIKFYVE (1493 to end residues) expressed in baculovirus-infected Sf9 cells using PI(3)P:PS as substrate incubated for 60 mins in presence of ATP by ADP-Glo assay
[3] = test system: Calu-3; assay: (§1) Inhibition of His-6 tagged SARS-CoV-2 spike protein uptake in human Calu-3 cells at 1 uM incubated for 1 hr by fluorescence based analysis relative control; format: functional
[4] = test system: Calu-3; assay: Inhibition of lentivirus pseudotyped with SARS-CoV-2 spike glycoprotein uptake in human Calu-3 cells at 1 uM preincubated for 1 hr prior to viral infection for 12 hrs by fluorescence based analysis; format: functional, cell-based
[5] = test system: Caco-2; assay: (§2) Inhibition of His-6 tagged SARS-CoV-2 spike protein uptake in human Caco-2 cells at 1 uM incubated for 1 hr by fluorescence based analysis relative control; format: functional
[6] = test system: SH-SY5Y; assay: Induction of lysosome dysfunction in human SH-SY5Y cells at 5 uM incubated for 24 hrs by lyso-tracker red DND-99 based confocal microscopic method; format: functional, cell-based
[7] = test system: SARS-CoV-2; assay: microbe, parasite or virus in culture; conditions: Severe acute respiratory syndrome coronavirus 2, A549-ACE2
Description: Antiviral activity against SARS-CoV-2 infected in human A549-ACE2 cells assessed as effect on cell viability pretreated with compound for 1 hr followed by viral infection measured after 2 hrs by Nano-Glo reagent based LDH assay

[8] = test system: Murine hepatitis virus; assay: microbe, parasite or virus in culture; conditions: Murine coronavirus, Astrocytoma delayed brain tumor (DBT) cell
Description: Antiviral activity against MHV-nLuc infected in DBT cells assessed as effect on cell viability by LDH assay

[9] = as §1; format: functional
[10] = Microsomal stability in CD-1 mouse liver microsomal assessed as parent compound remaining preincubated for 5 mins followed by NADPH addition measured after 30 mins by LC-TOFMS; format: ADME, subcellular; conditions: liver microsomes, time 35 min, read-out: Stability
[11] = as §2; format: functional
[12] = target: Microtubule-associated serine/threonine-protein kinase 1 (Homo sapiens) (UniProt Q9Y2H9); assay: Inhibition of wild-type human partial length MAST1 (S346 to V730 residues) expressed in mammalian expression system assessed as residual activity at 1 uM by Kinomescan method relative to control
[13] = target: Serine/threonine-protein kinase TAO1 (Homo sapiens) (UniProt Q7L7X3); assay: Inhibition of human wild type TAOK1 assessed as remaining activity at 1 uM by MRC screening assay relative to control
[14] = target: Phosphatidylinositol 5-phosphate 4-kinase type-2 gamma (Homo sapiens) (UniProt Q8TBX8); assay: Inhibition of human wild type full length PIP5K2C (M1 to A421 residues) expressed in mammalian expression system assessed as remaining activity at 1 uM by Kinomescan assay relative to control
[15] = target: cAMP-dependent protein kinase catalytic subunit PRKX (Homo sapiens) (UniProt P51817); assay: Inhibition of human wild type partial length PRKX (M1 to F358 residues) expressed in bacterial expression system assessed as remaining activity at 1 uM by Kinomescan assay relative to control
[16] = target: Mitogen-activated protein kinase kinase kinase 2 (Homo sapiens) (UniProt Q9Y2U5); assay: Inhibition of wild-type human partial length MAP3K2 (S315 to H619 residues) expressed in mammalian expression system assessed as residual binding level at 1 uM by Kinomescan method relative to control
[17] = target: Serine/threonine-protein kinase PAK 5 (Homo sapiens) (UniProt Q9P286); assay: Inhibition of human wild type PAK7 expressed in Escherichia coli assessed as remaining activity using RRRLSFAEPG peptide substrate at 1 uM by MRC screening assay relative to control
[18] = target: Tyrosine-protein kinase JAK2 (Homo sapiens) (UniProt O60674); assay: Inhibition of human wild type JAK2 (JH1) domain assessed as remaining activity at 1 uM by MRC screening assay relative to control
[19] = target: Serine/threonine-protein kinase PAK 4 (Homo sapiens) (UniProt O96013); assay: Inhibition of human wild type PAK4 assessed as remaining activity at 1 uM by MRC screening assay relative to control
[20] = target: Dual specificity mitogen-activated protein kinase kinase 4 (Homo sapiens) (UniProt P45985); assay: Inhibition of human wild type partial length MEK4 (S84 to D399 residues) expressed in mammalian expression system assessed as remaining activity at 1 uM by Kinomescan assay relative to control
[21] = target: Mitogen-activated protein kinase kinase kinase kinase 5 (Homo sapiens) (UniProt Q9Y4K4); assay: Inhibition of human wild type MAP4K5 assessed as remaining activity at 1 uM by MRC screening assay relative to control
[22] = target: Serine/threonine-protein kinase PAK 6 (Homo sapiens) (UniProt Q9NQU5); assay: Inhibition of human wild type PAK6 assessed as remaining activity at 1 uM by MRC screening assay relative to control
[23] = target: Serine/threonine-protein kinase TAO2 (Homo sapiens) (UniProt Q9UL54); assay: Inhibition of human wild type partial length TAOK2 (M1 to A320 residues) expressed in mammalian expression system assessed as remaining activity at 1 uM by Kinomescan assay relative to control
[24] = target: Myosin light chain kinase family member 4 (Homo sapiens) (UniProt Q86YV6); assay: Inhibition of human wild type […] length MYLK4 (V79 to S380 residues) expressed in bacterial expression system assessed as remaining activity at 1 uM by Kinomescan assay relative to control
[25] = target: Mitogen-activated protein kinase kinase kinase kinase 2 (Homo sapiens) (UniProt Q12851); assay: Inhibition of human wild type partial length MAP4K2 (M1 to G318 residues) expressed in mammalian expression system assessed as remaining activity at 1 uM by Kinomescan assay relative to control
[26] = target: Serine/threonine-protein kinase TAO3 (Homo sapiens) (UniProt Q9H2K8); assay: Inhibition of human wild type partial length TAOK3 (M1 to T316 residues) expressed in mammalian expression system assessed as remaining activity at 1 uM by Kinomescan assay relative to control
[27] = target: Dual serine/threonine and tyrosine protein kinase (Homo sapiens) (UniProt Q6XUX3); assay: Inhibition of human wild type full length RIPK5 (M1 to T929 residues) expressed in mammalian expression system assessed as remaining activity at 1 uM by Kinomescan assay relative to control
[28] = target: Mitogen-activated protein kinase kinase kinase 3 (Homo sapiens) (UniProt Q99759); assay: Inhibition of human wild type partial length MAP3K3 (E320 to Y626 residues) expressed in mammalian expression system assessed as remaining activity at 1 uM by Kinomescan assay relative to control
[29] = target: Citron Rho-interacting kinase (Homo sapiens) (UniProt O14578); assay: Inhibition of wild-type human partial length CIT (M68 to E432 residues) expressed in bacterial expression system assessed as residual binding level at 1 uM by Kinomescan method relative to control
[30] = target: Mitogen-activated protein kinase kinase kinase 19 (Homo sapiens) (UniProt Q56UN5); assay: Inhibition of wild-type human partial length YSK4 (T1019 to H1328 residues) expressed in mammalian expression system assessed as residual binding level at 1 uM by Kinomescan method relative to control
[31] = target: Phosphatidylinositol 4-phosphate 5-kinase type-1 gamma (Homo sapiens) (UniProt O60331); assay: Inhibition of human wild type full length PIP5K1C (M1 to T668 residues) expressed in mammalian expression system assessed as remaining activity at 1 uM by Kinomescan assay relative to control

T1 sequence (Q9Y2I7 whole entry): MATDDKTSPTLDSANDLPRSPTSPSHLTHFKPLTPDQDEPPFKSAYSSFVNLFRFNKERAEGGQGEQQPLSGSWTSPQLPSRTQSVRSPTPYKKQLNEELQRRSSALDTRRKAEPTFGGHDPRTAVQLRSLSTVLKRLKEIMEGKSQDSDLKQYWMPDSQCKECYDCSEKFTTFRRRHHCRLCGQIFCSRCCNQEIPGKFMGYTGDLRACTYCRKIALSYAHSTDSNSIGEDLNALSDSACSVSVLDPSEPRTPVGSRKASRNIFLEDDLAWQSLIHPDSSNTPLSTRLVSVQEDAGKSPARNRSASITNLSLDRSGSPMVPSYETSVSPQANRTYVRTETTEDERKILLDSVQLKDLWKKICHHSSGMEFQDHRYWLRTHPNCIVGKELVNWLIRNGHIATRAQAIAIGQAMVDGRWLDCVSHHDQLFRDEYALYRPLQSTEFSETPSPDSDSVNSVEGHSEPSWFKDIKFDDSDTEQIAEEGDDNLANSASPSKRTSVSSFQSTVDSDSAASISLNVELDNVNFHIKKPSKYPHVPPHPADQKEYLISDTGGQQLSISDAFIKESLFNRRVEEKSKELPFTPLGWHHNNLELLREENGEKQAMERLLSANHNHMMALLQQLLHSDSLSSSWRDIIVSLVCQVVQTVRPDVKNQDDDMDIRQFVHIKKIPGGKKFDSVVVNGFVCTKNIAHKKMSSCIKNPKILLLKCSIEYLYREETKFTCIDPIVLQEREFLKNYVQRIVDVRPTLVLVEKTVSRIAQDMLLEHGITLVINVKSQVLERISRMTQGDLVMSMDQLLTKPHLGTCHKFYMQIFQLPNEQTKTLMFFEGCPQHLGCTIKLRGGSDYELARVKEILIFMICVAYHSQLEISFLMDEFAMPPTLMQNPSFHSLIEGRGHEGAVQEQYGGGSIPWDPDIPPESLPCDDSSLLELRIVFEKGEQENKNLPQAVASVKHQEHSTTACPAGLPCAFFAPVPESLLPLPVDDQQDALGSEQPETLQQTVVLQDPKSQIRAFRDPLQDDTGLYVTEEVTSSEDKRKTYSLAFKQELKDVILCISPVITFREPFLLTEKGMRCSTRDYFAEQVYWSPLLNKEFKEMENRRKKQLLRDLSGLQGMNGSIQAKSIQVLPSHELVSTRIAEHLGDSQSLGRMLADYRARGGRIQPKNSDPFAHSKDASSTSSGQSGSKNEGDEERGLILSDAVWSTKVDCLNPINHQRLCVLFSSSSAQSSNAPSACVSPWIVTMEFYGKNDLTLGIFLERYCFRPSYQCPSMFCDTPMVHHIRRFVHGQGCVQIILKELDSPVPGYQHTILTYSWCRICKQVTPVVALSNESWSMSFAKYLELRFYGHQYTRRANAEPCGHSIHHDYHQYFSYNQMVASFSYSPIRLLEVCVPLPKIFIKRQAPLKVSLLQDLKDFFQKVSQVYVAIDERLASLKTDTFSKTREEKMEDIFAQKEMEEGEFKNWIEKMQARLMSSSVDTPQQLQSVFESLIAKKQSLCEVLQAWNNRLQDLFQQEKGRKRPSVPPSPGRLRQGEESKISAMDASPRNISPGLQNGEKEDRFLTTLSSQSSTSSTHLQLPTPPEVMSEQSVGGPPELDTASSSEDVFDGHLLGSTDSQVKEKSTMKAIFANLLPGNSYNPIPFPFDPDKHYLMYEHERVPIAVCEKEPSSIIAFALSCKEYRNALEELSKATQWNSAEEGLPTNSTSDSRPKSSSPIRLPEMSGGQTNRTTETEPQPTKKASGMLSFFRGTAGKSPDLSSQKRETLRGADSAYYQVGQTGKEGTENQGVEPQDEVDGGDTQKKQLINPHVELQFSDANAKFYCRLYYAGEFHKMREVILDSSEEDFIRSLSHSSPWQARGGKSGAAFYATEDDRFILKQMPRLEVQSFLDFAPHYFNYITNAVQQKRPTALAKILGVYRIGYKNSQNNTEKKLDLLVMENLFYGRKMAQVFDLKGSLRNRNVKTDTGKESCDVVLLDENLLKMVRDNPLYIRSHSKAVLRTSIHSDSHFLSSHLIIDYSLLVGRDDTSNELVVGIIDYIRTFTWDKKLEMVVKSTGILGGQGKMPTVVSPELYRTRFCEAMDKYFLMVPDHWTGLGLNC
Sequence of Citron Rho-interacting kinase (Homo sapiens) (O14578 whole entry, the tested form may be a part): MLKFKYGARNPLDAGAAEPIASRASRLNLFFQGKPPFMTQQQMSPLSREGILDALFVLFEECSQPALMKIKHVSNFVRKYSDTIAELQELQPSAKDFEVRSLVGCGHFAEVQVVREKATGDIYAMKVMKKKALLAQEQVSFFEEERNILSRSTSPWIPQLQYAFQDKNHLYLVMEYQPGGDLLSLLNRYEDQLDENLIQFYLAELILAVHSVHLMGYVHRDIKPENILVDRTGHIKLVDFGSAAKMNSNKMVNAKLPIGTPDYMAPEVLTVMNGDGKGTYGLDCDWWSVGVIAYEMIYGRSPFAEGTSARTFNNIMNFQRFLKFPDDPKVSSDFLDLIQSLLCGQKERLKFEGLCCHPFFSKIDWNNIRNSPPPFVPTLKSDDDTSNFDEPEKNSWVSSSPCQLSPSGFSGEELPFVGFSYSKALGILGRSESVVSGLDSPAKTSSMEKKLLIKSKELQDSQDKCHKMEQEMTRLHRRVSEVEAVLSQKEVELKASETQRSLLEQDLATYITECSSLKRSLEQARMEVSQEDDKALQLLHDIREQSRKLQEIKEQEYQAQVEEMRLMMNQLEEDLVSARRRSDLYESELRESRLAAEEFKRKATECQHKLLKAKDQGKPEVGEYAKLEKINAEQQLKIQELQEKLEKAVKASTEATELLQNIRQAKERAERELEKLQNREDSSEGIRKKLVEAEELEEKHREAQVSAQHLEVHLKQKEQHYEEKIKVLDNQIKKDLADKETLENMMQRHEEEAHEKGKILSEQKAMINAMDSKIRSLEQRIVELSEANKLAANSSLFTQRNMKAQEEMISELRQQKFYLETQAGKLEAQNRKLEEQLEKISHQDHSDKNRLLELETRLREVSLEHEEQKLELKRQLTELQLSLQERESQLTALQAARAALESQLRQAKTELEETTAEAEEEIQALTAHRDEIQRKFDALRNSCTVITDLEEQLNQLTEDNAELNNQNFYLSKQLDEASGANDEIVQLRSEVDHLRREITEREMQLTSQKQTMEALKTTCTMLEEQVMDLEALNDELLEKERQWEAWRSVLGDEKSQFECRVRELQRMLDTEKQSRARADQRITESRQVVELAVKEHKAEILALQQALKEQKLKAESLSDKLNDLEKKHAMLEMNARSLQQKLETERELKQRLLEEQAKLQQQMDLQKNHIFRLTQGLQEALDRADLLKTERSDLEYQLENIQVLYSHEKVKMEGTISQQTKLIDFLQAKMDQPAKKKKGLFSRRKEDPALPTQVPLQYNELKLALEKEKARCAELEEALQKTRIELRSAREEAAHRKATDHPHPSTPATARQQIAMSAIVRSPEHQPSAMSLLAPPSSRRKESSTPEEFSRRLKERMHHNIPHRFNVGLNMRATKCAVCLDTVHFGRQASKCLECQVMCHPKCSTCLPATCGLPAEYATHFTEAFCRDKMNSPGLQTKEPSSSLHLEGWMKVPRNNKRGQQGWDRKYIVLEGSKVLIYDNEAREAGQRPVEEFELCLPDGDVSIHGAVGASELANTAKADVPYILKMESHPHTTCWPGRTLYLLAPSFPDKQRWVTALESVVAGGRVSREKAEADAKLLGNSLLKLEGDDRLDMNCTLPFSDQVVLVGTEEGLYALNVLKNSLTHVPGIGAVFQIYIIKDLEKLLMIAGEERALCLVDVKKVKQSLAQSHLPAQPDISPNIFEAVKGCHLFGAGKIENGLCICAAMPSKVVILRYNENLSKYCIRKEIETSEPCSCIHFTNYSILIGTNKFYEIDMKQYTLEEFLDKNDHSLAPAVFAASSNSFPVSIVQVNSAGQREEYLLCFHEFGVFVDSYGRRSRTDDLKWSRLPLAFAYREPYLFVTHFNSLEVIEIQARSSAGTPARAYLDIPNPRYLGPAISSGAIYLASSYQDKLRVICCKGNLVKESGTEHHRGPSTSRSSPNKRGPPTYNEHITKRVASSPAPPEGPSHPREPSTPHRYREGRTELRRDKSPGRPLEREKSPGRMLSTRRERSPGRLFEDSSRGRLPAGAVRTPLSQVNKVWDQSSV
Sequence of Serine/threonine-protein kinase TAO1 (Homo sapiens) (Q7L7X3 whole entry, the tested form may be a part): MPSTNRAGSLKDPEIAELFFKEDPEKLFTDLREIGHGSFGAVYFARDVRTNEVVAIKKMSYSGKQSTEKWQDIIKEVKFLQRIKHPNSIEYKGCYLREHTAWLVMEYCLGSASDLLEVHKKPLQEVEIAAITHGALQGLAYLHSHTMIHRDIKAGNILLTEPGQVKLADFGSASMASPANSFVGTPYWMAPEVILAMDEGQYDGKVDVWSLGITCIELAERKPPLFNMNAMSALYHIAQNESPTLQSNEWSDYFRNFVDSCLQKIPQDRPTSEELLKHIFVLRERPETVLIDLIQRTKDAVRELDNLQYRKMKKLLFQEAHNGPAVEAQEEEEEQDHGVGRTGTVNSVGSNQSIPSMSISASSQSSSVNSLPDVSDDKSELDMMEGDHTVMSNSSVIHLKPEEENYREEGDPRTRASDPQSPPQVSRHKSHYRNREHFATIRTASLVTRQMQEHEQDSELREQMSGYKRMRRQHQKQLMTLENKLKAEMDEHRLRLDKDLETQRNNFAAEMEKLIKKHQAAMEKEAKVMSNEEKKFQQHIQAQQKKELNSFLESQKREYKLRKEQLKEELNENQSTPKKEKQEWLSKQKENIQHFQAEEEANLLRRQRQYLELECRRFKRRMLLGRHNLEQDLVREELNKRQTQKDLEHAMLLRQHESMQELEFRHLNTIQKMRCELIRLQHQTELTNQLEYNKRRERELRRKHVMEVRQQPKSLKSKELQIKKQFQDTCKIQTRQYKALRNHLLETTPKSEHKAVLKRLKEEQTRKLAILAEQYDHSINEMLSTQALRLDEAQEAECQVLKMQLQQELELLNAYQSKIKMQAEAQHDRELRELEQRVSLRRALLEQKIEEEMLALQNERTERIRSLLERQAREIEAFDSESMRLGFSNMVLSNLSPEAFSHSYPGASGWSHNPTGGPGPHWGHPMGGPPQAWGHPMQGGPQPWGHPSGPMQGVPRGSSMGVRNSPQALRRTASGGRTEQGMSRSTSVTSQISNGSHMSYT

Structure (SMILES)	IC50 [1] [nM]	IC50 [2] [nM]	IC50 [8] [nM]	IC50 ([8]; read-out: pIC50 (converted)) [nM]	other results
Nc1ncc2c(n1)-c1c([nH]c3ccc(-c4ccc(F)cc4)cc13)CCCC2	2560	–	–	–	–
Nc1ncc2c(n1)-c1c([nH]c3ccc(C#Cc4ccncc4)cc13)CCCC2	5290	580	–	–	–
CN(C)CC#Cc1ccc2[nH]c3c(c2c1)-c1nc(N)ncc1CCCC3	683	430	–	–	–
Cc1cccc(/C=N/Nc2cc(N3CCOCC3)nc(OCCc3ccccn3)n2)c1	–	–	–	–	inhibition [3]: Active; inhibition [4]: Active; inhibition [5]: Active; Activity [6]: Active
CCC(CC)COC(=O)[C@H](C)N[P@](=O)(OC[C@H]1O[C@@](C#N)(c2ccc3c(N)ncnn23)[C@H](O)[C@@H]1O)Oc1ccccc1	–	–	–	–	IC50 [7]: 86.4 nM
CC(C)C(O)C#Cc1ccc2[nH]c3c(c2c1)-c1nc(N)ncc1CCC3 (stereo not given)	45.7	–	–	–	–
Cn1cc(-c2ccc3[nH]c4c(c3c2)-c2nc(N)ncc2CC4)cn1	4970	34	5350	5370	–
Nc1ncc2c(n1)-c1c([nH]c3ccc(C#Cc4ccncc4)cc13)CC2	2980	–	–	–	–
CC(C)(O)C#Cc1ccc2[nH]c3c(c2c1)-c1nc(N)ncc1CC3	220	–	–	–	–
Nc1ncc2c(n1)-c1c([nH]c3ccc(-c4ccc(F)cc4)cc13)CC2	380	8.2	713	708	–
CN(C)CC#Cc1ccc2[nH]c3c(c2c1)-c1nc(N)ncc1CCC3	–	–	–	–	inhibition at 1 µM [9]: > 75%; inhibition [4]: Active; remaining at 0.5 h [10]: 12.6%; inhibition at 1 µM [11]: > 91%; Activity [6]: Active
Cn1cc(-c2ccc3[nH]c4c(c3c2)-c2nc(N)ncc2CCC4)cn1	1560	26	666	661	–
Cn1cncc1C#Cc1ccc2[nH]c3c(c2c1)-c1nc(N)ncc1CCCC3	> 10000	290	–	–	–
CC(C)C(O)C#Cc1ccc2[nH]c3c(c2c1)-c1nc(N)ncc1CC3 (stereo not given)	1170	–	1920	1910	–
Cc1cccc(/C=N/Nc2cc(N3CCOCC3)n3nc(-c4ccncc4)cc3n2)c1	–	–	40.4	40.7	–
Cn1cncc1C#Cc1ccc2[nH]c3c(c2c1)-c1nc(N)ncc1CC3	> 10000	77	8050	8130	–
CN(C)CC#Cc1ccc2[nH]c3c(c2c1)-c1nc(N)ncc1CC3	123	–	–	–	–
Nc1ncc2c(n1)-c1c([nH]c3ccc(C#CC4CC4)cc13)CC2	300	–	–	–	–
Nc1ncc2c(n1)-c1c([nH]c3ccc(-c4ccc(F)cc4)cc13)CCC2	11.4	9.3	71	70.8	inhibition [4]: Active; IC50 [7]: 73.3 nM; Activity [6]: Active
Nc1ncc2c(n1)-c1c([nH]c3ccc(C4CC4)cc13)CCCC2	–	–	> 10000	> 10000	IC50 [7]: > 10000 nM; Activity [12]: 32%
CC(C)(O)C#Cc1ccc2[nH]c3c(c2c1)-c1nc(N)ncc1CCCC3	2450	61	8470	8510	–
Nc1ncc2c(n1)-c1c([nH]c3ccc(C#Cc4ccncc4)cc13)CCC2	885	22	485	490	–
CC(C)(O)C#Cc1ccc2[nH]c3c(c2c1)-c1nc(N)ncc1CCC3	–	–	–	–	Activity [13]: < 10%; Activity [14]: < 10%; Activity [15]: < 10%; Activity [16]: < 10%; Activity [17]: < 10%; Activity [18]: < 10%; Activity [19]: < 10%; Activity [20]: < 10%; Activity [21]: < 10%; Activity [22]: < 10%; Activity [23]: < 10%; Activity [24]: < 10%; Activity [25]: < 10%; Activity [26]: < 10%; Activity [27]: < 10%; Activity [28]: < 10%; Activity [29]: < 10%; Activity [30]: < 10%; Activity [31]: < 10%
Nc1ncc2c(n1)-c1c([nH]c3ccc(C#CC4CC4)cc13)CCCC2	700	75	1800	1780	–
